# Read-outs that look alike come from different tables or passages of the source.
# Key:
# [1] = system: Trypanosoma brucei brucei laboratory strain TC 221; test: Trypanosoma brucei brucei trypomastigote growth inhibition (Alamar Blue); format: cell-based
# Protocol: [22] Trypomastigote forms of Trypanosoma brucei brucei laboratory strain TC 221 were cultured in complete Baltz medium [80 mL Baltz medium basic solution, 0.8 mL 2 mercaptoethanol stock solution (20 mM), 0.8 mL penicillin/streptomycin (10,000 U/mL), 16 mL FCS (inactivated for 30 min at 56 °C). Baltz medium basic solution is composed of the following: 500 mL MEM with Earle’s salts and L-glutamine, 3 g Hepes, 0.5 g monohydrate glucose, 0.110 g sodium pyruvate, 0.007 g hypoxanthine, 0.002 g thymidine, 0.0107 g adenosine, 0.0141 g bathocuproine disulfonic acid disodium salt, 0.146 g glutamine, 5 mL sterile non-essential amino acid concentrate (100×, pH 7.5). A defined number of parasites ([…]) were exposed in test chambers of 96-well plates to various concentrations of the test substances (previously dissolved in DMSO) to make a final volume of 200 μL in duplicates. Positive (trypanosomes in culture medium) and negative controls (test substance without trypanosomes) were run simultaneously with each plate. The plates were then incubated at 37 °C in an atmosphere of 5% CO2 for a total time period of 72 h. After 24 h, 20 μL of Alamar Blue was added. […]. The first reading was done at 48 h and subsequently at 72 h. The effect of the test substances was quantified in IC50 values by linear interpolation of three independent measurements.
# [2] = in vitro; settings: human
# Protocol: (§1) Following the addition of 20 μL of Alamar Blue, the plates were incubated and the ODs measured at 24 h, 48 h and 72 h.
# [3] = system: Leishmania major promastigotes; test: Leishmania major promastigote growth inhibition (Alamar Blue); format: cell-based
# Protocol: Leishmania major promastigotes were seeded at a cell density of 1 × 10^7 cells/mL into 96-well plates in complete medium (RPMI with NaHCO3, 10% FCS, 2 mM glutamine, 10 mM Hepes pH 7.2, 100 U/mL penicillin, 50 μg/mL gentamicin, 50 mM 2-mercaptoethanol) without phenol red (200 mL), in the absence or presence of different concentrations of the compounds. These were then incubated for 24 h at 26 °C, 5% CO2 and 95% humidity. Following the addition of 20 mL of Alamar Blue, the plates were incubated again and the optical densities (ODs) measured 24 h and 48 h later with an enzyme-linked immunosorbent assay (ELISA) reader (Multiskan Ascent, Germany) using a test wavelength of 540 nm and a reference wavelength of 630 nm. Absorbance in the absence of compounds was set as 100% of growth. Amphotericin B was used as a reference compound and positive control. The effects of cell density, incubation time and the concentration of DMSO were examined in control experiments. The final concentration of DMSO in the medium never exceeded 1% vol/vol and had no effect on the proliferation of extracellular or intracellular parasites. For each experiment, each drug concentration was assayed in duplicate wells [31]
# [4] = Cytotoxicity against J774.1 macrophages (Alamar Blue); settings: mouse
# Protocol: as §1
# [5] = Cytotoxicity against 293T kidney epithelial cells (Alamar Blue); settings: human
# Protocol: as §1
SMILES,"IC50 ([1]; reading at 48 h, read-out: IC50 Trypanosoma brucei brucei (48 h)) [nM]","IC50 ([1]; reading at 72 h, read-out: IC50 Trypanosoma brucei brucei (72 h)) [nM]",IC50 [2] [nM],IC50 [3] [nM],"IC50 ([1]; 48 h, read-out: IC50 Trypanosoma brucei brucei (48 h)) [nM]","IC50 ([1]; 72 h, read-out: IC50 Trypanosoma brucei brucei (72 h)) [nM]",IC50 at 24 h [4] [nM],IC50 at 24 h [5] [nM]
CN[C@@H]1C[C@H]2O[C@@](C)([C@@H]1OC)n1c3ccccc3c3c4c(c5c6ccccc6n2c5c31)C(=O)NC4 [staurosporine],22,35,1300,–,–,–,–,–
CC(C)[C@@H]1NC(=O)[C@H](C)OC(=O)[C@@H](C(C)C)NC(=O)[C@@H](C(C)C)OC(=O)[C@H](C(C)C)NC(=O)[C@H](C)OC(=O)[C@@H](C(C)C)NC(=O)[C@@H](C(C)C)OC(=O)[C@H](C(C)C)NC(=O)[C@H](C)OC(=O)[C@@H](C(C)C)NC(=O)[C@@H](C(C)C)OC1=O [valinomycin],–,–,–,< 110,3.2,3.6,< 100,11200

# Source: paper PMC2852844, “Anti-Parasitic Compounds from Streptomyces sp. Strains Isolated from Mediterranean Sponges” (Marine Drugs, 2010)
